# Data reported in patent publication US7671054B1, “Reverse-turn mimetics and method relating thereto” (Choongwae Pharma Corporation, priority 2001, dated 2010).
# Read-outs that look alike come from different tables or passages of the source.
# Key:
# HCT116 cells = experiment: Growth inhibition assay (MTS); assay type: cell-based; details: Homo sapiens, HCT116 cells, 48 hours treatment, MTS, read-out: Growth Inhibition (GI50, uM) HCT116
# Protocol: (§1) SW480 or HCT116 cells were placed into 96 well microplate (10^4cells/well) and incubated for 24 hours at 37° C. 20 μl of [3-(4,5-dimethylthiazol-2-yl)-5-(3-carboxyphenyl)-2-(4-sulfophenyl)-2H-tetrazolium, inner salt](MTS) solution (Promega) was added into each well and the absorbance after 2 hour incubation at 37° C. (negative control) was read. And then, the cells were treated with TCF4 compound at various concentrations for 48 hours. 20 μl of MTS solution (Promega) was added into each well and incubated for 2 hour at 37° C. Cell viability was measured by reading the absorbance at 490 nm using a microplate reader (Molecular device) and cytotoxicity of a compound at each concentration was calculated.
# as §1, with “a test” for “TCF4”
# SW480 cells = experiment: Growth inhibition assay (MTS); assay type: cell-based; details: Homo sapiens, SW480 cells, 48 hours treatment, MTS, read-out: Growth Inhibition (GI50, uM) SW480
# Protocol: as §1
# as §1, with “a test” for “TCF4”
SMILES,"GI50 (HCT116 cells; HCT-116, 48 h, Table 5)","GI50 (SW480 cells; SW480, 48 h, Table 5)",further results
CN1CC(=O)N2[C@@H](Cc3ccc(O)cc3)C(=O)N(Cc3ccc(F)cc3)C[C@@H]2N1C(=O)NCc1ccccc1 [Compound 12],,,"GI50 (HCT116 cells; HCT-116, Table 5): 1.48 µM; GI50 (SW480 cells; Table 5): 2.54 µM"
C#CCN1CC(=O)N2[C@@H](Cc3ccc(O)cc3)C(=O)N(Cc3ccc4c(c3)OCCN4C)C[C@@H]2N1C(=O)NCc1ccccc1 [Compound 118],23.2 ± 2.8 µM,21.2 ± 1.5 µM,
C=CC[C@@H]1CC(=O)N2[C@H](CN(Cc3cccc4cn[nH]c34)C(=O)[C@@H]2Cc2ccc(O)cc2)N1C(=O)NCc1ccccc1,,,"GI50 (HCT116 cells; HCT-116, 48 h, Example 21): 2.3 µM; GI50 (SW480 cells; SW480, 48 h, Example 21): 2 µM"
CN1CC(=O)N2[C@@H](Cc3ccc(O)cc3)C(=O)N(Cc3cccc4ccccc34)C[C@@H]2N1C(=O)NCc1ccccc1 [Compound 60],6.3 ± 2.6 µM,8.3 ± 1.4 µM,
CCCN1CC(=O)N2[C@@H](Cc3ccc(NC=O)cc3)C(=O)N(Cc3ccc(F)cc3F)C[C@@H]2N1C(=O)NCc1ccccc1 [Compound 130],10.7 ± 1.7 µM,17.3 ± 1.2 µM,
C=CCN1CC(=O)N2[C@@H](Cc3ccc(O)cc3)C(=O)N(Cc3ccc(F)cc3F)C[C@@H]2N1C(=O)NCc1ccc(F)cc1 [Compound 145],5.9 ± 0.3 µM,6.4 ± 0.1 µM,
C=CCN1CC(=O)N2[C@@H](Cc3ccc(O)cc3)C(=O)N(Cc3cccc4scnc34)C[C@@H]2N1C(=O)NCc1ccc(Cl)c(Cl)c1 [Compound 180],1.1 ± 0.1 µM,1 ± 0.1 µM,
C=CCN1CC(=O)N2[C@@H](Cc3ccc(O)cc3)C(=O)N(Cc3ccc(F)c(F)c3)C[C@@H]2N1C(=O)NCc1ccccc1 [Compound 148],1 ± 0.3 µM,1.3 ± 0.1 µM,
C=CCN1CC(=O)N2[C@@H](Cc3ccc(O)cc3)C(=O)N(Cc3ccc(F)cc3F)C[C@@H]2N1C(=O)NCc1ccc(Cl)c(Cl)c1 [Compound 149],2.3 ± 0.4 µM,2.3 ± 0.1 µM,
CN1CC(=O)N2[C@@H](Cc3ccc(O)cc3)C(=O)N(Cc3ccc(F)cc3F)C[C@@H]2N1C(=O)NCc1ccc(F)cc1 [Compound 170],8.6 ± 0.8 µM,8.9 ± 0.8 µM,
CC(C)N(C)c1cc([C@@H](C)N2C[C@H]3N(C(=O)CN(C)N3C(=O)NCc3ccccc3)[C@@H](Cc3ccc(O)cc3)C2=O)ccc1F [Compound 39],19.7 ± 3.3 µM,22.8 ± 6.5 µM,
C=CC[C@@H]1CC(=O)N2[C@H](CN(Cc3cccc4scnc34)C(=O)[C@@H]2Cc2ccc(O)cc2)N1C(=O)NCc1ccccc1,,,"GI50 (HCT116 cells; HCT-116, 48 h, Example 21): 1.4 µM; GI50 (SW480 cells; SW480, 48 h, Example 21): 1.2 µM"
C#CCNC(=O)c1ccccc1Cn1ncc2c(CN3C[C@H]4N(C(=O)CN(C)N4C(=O)NCc4ccccc4)[C@@H](Cc4ccc(O)cc4)C3=O)cccc21 [Compound 80],3.9 ± 0.6 µM,4 ± 0.6 µM,
CCN1CC(=O)N2[C@@H](Cc3ccc(O)cc3)C(=O)N(Cc3cccc(N4CCOCC4)c3)C[C@@H]2N1C(=O)NCc1ccccc1 [Compound 95],7.1 ± 1.2 µM,16.2 ± 2.6 µM,
C[C@@H](c1ccc(Cl)c2cccnc12)N1CC2N(C(=O)CN(C)N2C(=O)NCc2ccccc2)[C@@H](Cc2ccc(O)cc2)C1=O (stereo partly shown) [Compound 166],25.2 ± 3.2 µM,27.9 ± 4.7 µM,
C=CCN1CC(=O)N2[C@@H](Cc3ccc(O)cc3)C(=O)N(Cc3ccccc3)C[C@@H]2N1C(=O)NCc1ccc(Cl)c(Cl)c1 [Compound 177],1.6 ± 0.1 µM,1.8 ± 0.1 µM,
C#CCN1CC(=O)N2[C@@H](Cc3ccc(O)cc3)C(=O)N(Cc3ccc(Cl)c(N(C)C)c3)C[C@@H]2N1C(=O)NCc1ccccc1 [Compound 83],2.5 ± 0.1 µM,2.3 ± 0.3 µM,
CCCN1CC(=O)N2[C@@H](Cc3ccc(O)cc3)C(=O)N(Cc3ccc(Cl)c(N(C)C)c3)C[C@@H]2N1C(=O)NCc1ccccc1 [Compound 98],4.4 ± 0.5 µM,7 ± 1.1 µM,
C#CCN1CC(=O)N2[C@@H](Cc3ccc(O)cc3)C(=O)N(Cc3ccc(C)c(N4CCOCC4)c3)C[C@@H]2N1C(=O)NCc1ccccc1 [Compound 106],2.8 ± 0.4 µM,4.5 ± 0.3 µM,
C=CCN1CC(=O)N2[C@@H](Cc3ccc(O)cc3)C(=O)N(Cc3cccc4sc(N5CCCCC5)nc34)C[C@@H]2N1C(=O)NCc1ccccc1 [Compound 188],1.8 ± 0.2 µM,1.6 ± 0.2 µM,
C=CCN1CC(=O)N2[C@@H](Cc3ccc(O)c(F)c3)C(=O)N(Cc3cccc4scnc34)C[C@@H]2N1C(=O)NCc1ccccc1 [Compound 186],2 ± 0.2 µM,1.7 ± 0.1 µM,
C=CCN1CC(=O)N2[C@@H](Cc3ccc(O)cc3)C(=O)N(Cc3ccc4c(c3)OCCO4)C[C@@H]2N1C(=O)NCc1ccccc1 [Compound 157],1.2 ± 0.1 µM,1 ± 0.2 µM,
CN1CC(=O)N2[C@@H](Cc3ccc(O)cc3)C(=O)N(Cc3cccc4cnn(CCN5CCOCC5)c34)C[C@@H]2N1C(=O)NCc1ccccc1 [Compound 69],9.7 ± 1 µM,17.9 ± 3.1 µM,

# Second part, led by results:
"GI50 (HCT116 cells; HCT-116, 48 h, Table 5)","GI50 (SW480 cells; SW480, 48 h, Table 5)",SMILES,further results
4.1 ± 0.7 µM,4.6 ± 0.5 µM,CN(C)c1cccc(CN2C[C@H]3N(C(=O)CN(C)N3C(=O)NCc3ccccc3)[C@@H](Cc3ccc(O)cc3)C2=O)c1 [Compound 55],
2.23 µM,2.58 µM,COc1ccccc1CN1C[C@H]2N(C(=O)CN(C)N2C(=O)NCc2ccccc2)[C@@H](Cc2ccc(O)cc2)C1=O [Compound 2],
15.5 ± 2.3 µM,20.7 ± 2.8 µM,CN1CC(=O)N2[C@@H](Cc3ccc(O)cc3)C(=O)N(Cc3cccc(N4CCCCC4)c3)C[C@@H]2N1C(=O)NCc1ccccc1 [Compound 48],
2.6 ± 0.1 µM,1.8 ± 0.2 µM,CCCN1CC(=O)N2[C@@H](Cc3ccc(O)cc3)C(=O)N(Cc3ccc(Cl)c4cccnc34)C[C@@H]2N1C(=O)NCc1ccccc1 [Compound 120],
12.2 µM,6.2 µM,CN1CC(=O)N2[C@@H](Cc3ccc(O)cc3)C(=O)N(Cc3cccc4[nH]ncc34)C[C@@H]2N1C(=O)NCc1ccccc1 [Compound 47],
5.8 ± 0.3 µM,3 ± 0.3 µM,CN1CC(=O)N2[C@@H](Cc3ccc(O)cc3)C(=O)N(Cc3cccc4cn(Cc5cccc(N)c5)nc34)C[C@@H]2N1C(=O)NCc1ccccc1 [Compound 66],
5.2 ± 0.4 µM,2.8 ± 0.2 µM,C#CCn1cc2cccc(CN3C[C@H]4N(C(=O)CN(C)N4C(=O)NCc4ccccc4)[C@@H](Cc4ccc(O)cc4)C3=O)c2n1 [Compound 79],
1.91 µM,1.99 µM,CN1CC(=O)N2[C@@H](Cc3ccc(O)cc3)C(=O)N(Cc3ccc(Cl)c(Cl)c3)C[C@@H]2N1C(=O)NCc1ccccc1 [Compound 4],
3.06 µM,23.9 µM,CCN(CC)c1cccc(CN2C[C@H]3N(C(=O)CN(C)N3C(=O)NCc3ccccc3)[C@@H](Cc3ccc(O)cc3)C2=O)c1 [Compound 26],
6.4 ± 1.3 µM,13.8 ± 2.4 µM,CCCN(C)c1cccc(CN2C[C@H]3N(C(=O)CN(C)N3C(=O)NCc3ccccc3)[C@@H](Cc3ccc(O)cc3)C2=O)c1 [Compound 34],
9.7 ± 0.9 µM,19.3 ± 2.1 µM,CN1CC(=O)N2[C@@H](Cc3ccc(O)cc3)C(=O)N(Cc3cccc4nnn(C)c34)C[C@@H]2N1C(=O)NCc1ccccc1 [Compound 52],
0.7 ± 0.1 µM,0.7 ± 0.4 µM,C=CCN1CC(=O)N2[C@@H](Cc3ccc(O)cc3)C(=O)N(Cc3cccc(OC)c3OC)C[C@@H]2N1C(=O)NCc1ccccc1 [Compound 184],
7.5 ± 1 µM,14.6 ± 1.4 µM,CN(C)Cc1cccc(CN2C[C@H]3N(C(=O)CN(C)N3C(=O)NCc3ccccc3)[C@@H](Cc3ccc(O)cc3)C2=O)c1 [Compound 89],
3.91 µM,3.96 µM,CN1CC(=O)N2[C@@H](Cc3ccc(O)cc3)C(=O)N(Cc3ccccc3SC(F)(F)F)C[C@@H]2N1C(=O)NCc1ccccc1 [Compound 6],
0.9 ± 0.1 µM,0.8 ± 0.1 µM,C=CCN1CC(=O)N2[C@@H](Cc3ccc(O)cc3)C(=O)N(Cc3cccc4c3OCO4)C[C@@H]2N1C(=O)NCc1ccccc1 [Compound 172],
5.8 ± 0.4 µM,6.4 ± 0.5 µM,CN1CC(=O)N2[C@@H](Cc3ccc(O)cc3)C(=O)N(Cc3cccc(N4CCCC4)c3)C[C@@H]2N1C(=O)NCc1ccccc1 [Compound 40],
1.7 ± 0.1 µM,2.8 ± 0.9 µM,C#CCN1CC(=O)N2[C@@H](Cc3ccc(O)cc3)C(=O)N(Cc3ccc(F)cc3F)C[C@@H]2N1C(=O)NCc1ccccc1 [Compound 116],
0.8 ± 0.7 µM,1.4 ± 0.4 µM,C=CCN1CC(=O)N2[C@@H](Cc3ccc(O)cc3)C(=O)N(Cc3ccccc3)C[C@@H]2N1C(=O)NCc1ccccc1 [Compound 134],
13.1 ± 0.6 µM,8.2 ± 0.5 µM,CN1CC(=O)N2[C@@H](Cc3ccc(O)cc3)C(=O)N(Cc3cccc(N4CCCC4=O)c3)C[C@@H]2N1C(=O)NCc1ccccc1 [Compound 121],
39.1 µM,> 50 µM,CN(C)c1ccc(C[C@H]2C(=O)N(Cc3cccc4ccccc34)C[C@H]3N2C(=O)CN(C)N3C(=O)NCc2ccccc2)cc1 [Compound 43],
1.7 ± 0.1 µM,1.6 ± 0.5 µM,C=CCN1CC(=O)N2C(Cc3ccc(O)cc3)C(=O)N(Cc3ccc(F)cc3F)CC2N1C(=O)NCc1ccccc1 (stereo not shown) [Compound 140],
